Reference: the supplement of paper PMC10307832

Assays:
Assay in all cases: relative viability (nuclei count vs DMSO), 5 days (fraction); higher = more cells survive
Linsitinib + Navitoclax = compound: C[C@]1(O)C[C@@H](c2nc(-c3ccc4ccc(-c5ccccc5)nc4c3)c3c(N)nccn32)C1 [Linsitinib] + CC1(C)CCC(c2ccc(Cl)cc2)=C(CN2CCN(c3ccc(C(=O)NS(=O)(=O)c4ccc(N[C@H](CCN5CCOCC5)CSc5ccccc5)c(S(=O)(=O)C(F)(F)F)c4)cc3)CC2)C1 [Navitoclax] (partner 0.5 µM)
How it was run: (§1)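 Lung cancer cell lines in 1536-well plates got either a single drug or a fixed anchor-drug dose together with five library-drug doses (not always all listed) in √10 steps, by pin tool, on the day after seeding. Nuclei were counted after 5 days, and relative viability is the treated-to-vehicle ratio of nuclei counts. Values are medians of duplicate plates.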

Linsitinib + Olaparib = compound: C[C@]1(O)C[C@@H](c2nc(-c3ccc4ccc(-c5ccccc5)nc4c3)c3c(N)nccn32)C1 [Linsitinib] + O=C(c1cc(Cc2n[nH]c(=O)c3ccccc23)ccc1F)N1CCN(C(=O)C2CC2)CC1 [Olaparib] (partner 8 µM)
How it was run: as §1

Ispinesib + OSI-027 = compound: Cc1ccc(C(=O)N(CCCN)[C@@H](c2nc3cc(Cl)ccc3c(=O)n2Cc2ccccc2)C(C)C)cc1 [Ispinesib] + COc1cccc2cc(-c3nc([C@H]4CC[C@H](C(=O)O)CC4)n4ncnc(N)c34)[nH]c12 [OSI-027] (partner 0.5 µM)
How it was run: as §1

Ispinesib + AZD7762 = compound: Cc1ccc(C(=O)N(CCCN)[C@@H](c2nc3cc(Cl)ccc3c(=O)n2Cc2ccccc2)C(C)C)cc1 [Ispinesib] + NC(=O)Nc1cc(-c2cccc(F)c2)sc1C(=O)N[C@H]1CCCNC1 [AZD7762] (partner 0.2 µM)
How it was run: as §1

| Cell Line | relative viability (Linsitinib + Navitoclax; first compound 0.01 µM) | relative viability (Linsitinib + Navitoclax; first compound 0.03162 µM) | relative viability (Linsitinib + Navitoclax; first compound 0.1 µM) | relative viability (Linsitinib + Navitoclax; first compound 0.3162 µM) | relative viability (Linsitinib + Navitoclax; first compound 1 µM) | relative viability (Linsitinib + Olaparib; first compound 0.01 µM) | relative viability (Linsitinib + Olaparib; first compound 0.03162 µM) | relative viability (Linsitinib + Olaparib; first compound 0.1 µM) | relative viability (Linsitinib + Olaparib; first compound 0.3162 µM) | relative viability (Linsitinib + Olaparib; first compound 1 µM) | relative viability (Ispinesib + OSI-027; first compound 0.001 µM) | relative viability (Ispinesib + OSI-027; first compound 0.003162 µM) | relative viability (Ispinesib + OSI-027; first compound 0.01 µM) | relative viability (Ispinesib + OSI-027; first compound 0.03162 µM) | relative viability (Ispinesib + OSI-027; first compound 0.1 µM) | relative viability (Ispinesib + AZD7762; first compound 0.001 µM) | relative viability (Ispinesib + AZD7762; first compound 0.003162 µM) | relative viability (Ispinesib + AZD7762; first compound 0.01 µM) | relative viability (Ispinesib + AZD7762; first compound 0.03162 µM) | relative viability (Ispinesib + AZD7762; first compound 0.1 µM) |
| --- | --- | --- | --- | --- | --- | --- | --- | --- | --- | --- | --- | --- | --- | --- | --- | --- | --- | --- | --- | --- |
| NCI-H2009 | 1.15 | 1.24 | 1.22 | 1.01 | 1.2 | 0.652 | 0.672 | 0.744 | 0.533 | 0.695 | 0.702 | 0.695 | 0.618 | 0.212 | 0.211 |  |  |  |  |  |
| NCI-H522 |  |  |  |  |  | 0.895 | 0.588 | 0.554 | 0.512 | 0.57 | 0.746 | 0.759 | 0.715 | 0.555 | 0.414 | 0.782 | 1.01 | 0.913 | 0.845 | 0.316 |
| NCI-H1623 |  |  |  |  |  |  |  |  |  |  | 0.433 | 0.439 | 0.451 | 0.406 | 0.4 |  |  |  |  |  |
| LCLC-103H |  |  |  |  |  | 0.743 | 0.776 | 0.771 | 0.689 | 0.758 | 0.562 | 0.585 | 0.527 | 0.366 | 0.357 | 0.849 | 0.836 | 0.887 | 0.484 | 0.434 |
| COR-L23 | 0.915 | 1.01 | 1.11 | 0.931 | 0.897 | 0.375 | 0.292 | 0.346 | 0.299 | 0.29 | 0.808 | 0.918 | 0.931 | 0.357 | 0.214 |  |  |  |  |  |
| SK-MES-1 | 1.26 | 1.31 | 1.33 | 0.979 | 1.16 | 0.702 | 0.784 | 0.633 | 0.584 | 0.557 | 0.732 | 0.601 | 0.628 | 0.182 | 0.229 |  |  |  |  |  |
| NCI-H520 | 1.15 | 0.685 | 1.1 |  | 0.893 | 0.349 | 0.395 | 0.344 |  | 0.346 | 0.249 | 0.218 | 0.276 | 0.19 | 0.169 |  |  |  |  |  |
| SW 1573 | 0.921 | 0.925 | 1 | 0.81 | 0.701 | 0.497 | 0.563 | 0.432 | 0.329 | 0.348 | 0.622 | 0.645 | 0.526 | 0.162 | 0.186 |  |  |  |  |  |
| NCI-H2023 | 1.02 | 0.628 | 1.07 | 0.839 | 0.87 | 0.468 | 0.39 | 0.617 | 0.378 | 0.453 | 0.467 | 0.421 | 0.404 | 0.163 | 0.143 |  |  |  |  |  |
| SK-LU-1 | 0.903 | 0.777 | 0.793 |  | 0.774 | 0.428 | 0.419 | 0.552 | 0.41 | 0.468 | 0.395 | 0.386 | 0.445 | 0.216 | 0.199 |  |  |  |  |  |
| NCI-H358 |  |  |  |  |  | 0.585 | 0.64 | 0.602 | 0.47 | 0.333 | 0.999 | 0.837 | 1.02 | 0.392 | 0.129 | 0.654 | 0.462 | 0.514 | 0.433 | 0.253 |
| ABC-1 |  |  |  |  |  | 0.859 | 1.04 | 0.785 | 1.09 | 0.626 | 0.488 | 0.524 | 0.58 | 0.203 | 0.283 | 0.981 | 1.21 | 0.852 | 0.395 | 0.301 |
| EBC-1 | 0.424 | 0.411 | 0.393 | 0.352 | 0.251 | 0.664 | 0.851 | 0.703 | 0.623 | 0.691 |  |  |  |  |  |  |  |  |  |  |
| NCI-H1703 | 0.894 |  | 1.43 | 0.924 | 0.932 | 0.479 |  | 0.448 | 0.755 | 0.189 |  |  |  |  |  | 0.16 | 0.121 | 0.134 | 0.0817 | 0.0822 |
| NCI-H1563 |  |  |  |  |  |  |  |  |  |  | 0.841 | 0.768 | 0.834 | 0.843 | 0.536 |  |  |  |  |  |
| NCI-H2228 | 0.81 | 1.09 | 0.941 | 0.787 | 0.791 | 0.763 | 0.601 | 0.735 | 0.379 | 0.477 | 0.609 | 0.553 | 0.636 | 0.222 | 0.209 |  |  |  |  |  |
| NCI-H1299 | 1.07 | 1.03 | 1.03 | 0.916 | 1.04 | 0.915 | 1.03 | 1 | 0.976 | 0.93 |  |  |  |  |  |  |  |  |  |  |
| A549 | 1.21 | 1.15 | 1.1 | 1.01 | 0.895 | 0.344 | 0.376 | 0.384 | 0.244 | 0.195 |  |  |  |  |  |  |  |  |  |  |
| NCI-H2342 |  |  |  |  |  | 0.532 | 0.565 | 0.481 | 0.438 | 0.407 | 0.631 | 0.741 | 0.593 | 0.48 | 0.456 | 0.609 | 0.432 | 0.528 | 0.411 | 0.373 |
| NCI-H1650 | 1.33 | 1.36 | 1.29 | 0.743 | 1.1 | 0.871 | 0.954 | 0.883 | 0.735 | 0.523 | 0.573 | 0.718 | 0.623 | 0.174 | 0.271 |  |  |  |  |  |
| SW 900 |  |  |  |  |  | 0.685 | 0.872 | 0.821 | 0.793 | 0.667 | 0.751 | 0.617 | 0.553 | 0.345 | 0.225 | 0.635 | 0.492 | 0.648 | 0.565 | 0.259 |
| NCI-H661 |  |  |  |  |  | 0.665 | 0.666 | 0.751 | 0.749 | 0.744 | 0.744 | 0.831 | 0.721 | 0.493 | 0.263 |  |  |  |  |  |
| NCI-H1648 |  |  |  |  |  | 0.766 | 0.941 | 1.31 | 0.377 | 0.399 | 0.274 | 0.312 | 0.212 | 0.226 | 0.238 | 0.653 | 0.774 | 0.682 | 0.616 | 0.273 |
| Calu-6 | 0.826 | 0.688 | 0.843 | 0.629 | 0.572 | 0.537 | 0.46 | 0.542 | 0.501 | 0.458 |  |  |  |  |  |  |  |  |  |  |
